Series [1] deals with neuronal synaptic puncta in hippocampal/cortical cultures. In words: Abeta binding assay, neurons (immunofluorescence of neurite puncta). Also on record: species or system rat.
Experimental: Alternatively, displacement of prebound oligomers was evaluated by adding oligomers 60 min prior to the addition of compounds, followed by additional 30 minutes incubation. Cells were fixed with 3.75% formaldehyde for 15 min, blocked with 5% normal goat serum and 0.5% Triton X-100 and incubated with primary antibodies for Abeta (1 µg/ml 6E10 or 4G8, Covance catalog numbers SIG-39320 and SIG-39330, respectively), MAP-2 (0.2 µg/ml Chemicon), Synaptophysin-1 (1 µg/ml, Anaspec), glial fibrillary acidic protein (GFAP, 1 µg/ml, Thermo-Fisher) and fluorescently labeled secondary antibodies (2 µg/ml, Invitrogen). Images were acquired on a Cellomics VTi automated microscope with a 20X, 0.75 NA objective and analyzed using ThermoFisher/Cellomics Neuronal Profiling bioapplication set to measure punctate labeling of Abeta and synaptophysin-1 along MAP-2 labeled neurites. For each replicate experiment, at least 100 neurons were sampled from 4 replicate wells for each experimental condition (400 to 500 neurons per experimental condition). […] All data presented for Abeta binding to neurons represents total intensity of Abeta label in neurite spots per neuron, in relative fluorescent units (RFU), unless otherwise indicated.
The test system of series [2] is mature primary hippocampal and cortical cultures. Nature of the series: Membrane trafficking assay (MTT formazan exocytosis).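 Note: mixed neuron and glia cultures from E18 Sprague-Dawley rat embryos, grown 3 weeks in 384-well plates, labeled vesicles quantified by imaging or spectrophotometry as percent of vehicle-treated wells.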 The series is classed as cell-based, rat.
The test system of series [3] is mouse models of Alzheimer's disease. Nature of the series: Behavioral tests (behavioral efficacy summary). In kind it is in vivo, mice. Also noted: key to Measured efficacy: statistically significant improvement (+); no significant improvement (-). The text has this:
(§1) All procedures were approved by the Institutional Animal Care and Use and Committee at Columbia University and Stanford University and were in compliance with the Office of Laboratory Animal Welfare and the Guide for the Care and Use of Laboratory Animals, Eighth Edition. Behavioral testing of wild-type, 3–4 month old, male, C57/BL6 mice, injected bilaterally into their hippocampus with Abeta oligomers and testing in the fear conditioning task was done according to published methods. Animals were anesthetized with […] Avertin prior to implantation of cannulas into the hippocampus. Testing of transgenic hAPP Swedish/London mice in the Morris water maze or fear conditioning tasks was done according to published methods, [38]. To measure brain concentration of drugs, brains were homogenized in 1 ml PBS per gram of brain tissue using a handheld homogenizer. Brain homogenate was then extracted with three volumes of ice cold methanol on ice for 15 minutes and centrifuged for 15 min. The supernates were analyzed by LC/MS/MS. Samples were compared to a calibration curve prepared in a similar manner by spiking blank control homogenate with standards prepared in DMSO and then extracted as above. At the end of all behavioral testing, animals were euthanized with CO2 followed by cervical dislocation.

Series [4] deals with hAPP Swe/Ldn transgenic mice. Nature of the series: Morris water maze probe trial. The series is classed as in vivo. As to conditions: 42 days.
From the text: as §1

Series [5] concerns synaptophysin-immunopositive puncta along MAP2-labeled neurites. In words: Synapse counting assay. The series is classed as cell-based, rat. Particulars: for loss of synaptophysin-immunoreactive puncta: synthetic Abeta oligomers vs vehicle, 24 hrs. Here is the method: Sprague-Dawley rats, 18 days pregnant, were euthanized by CO2 asphyxiation followed by cervical dislocation, and embryos were removed. Hippocampus and cortical tissue from the embryo brains were digested in 2.5% Trypsin (Life Technologies) to dissociate cells. Isolated cells were plated at a density of 4.6×10^4 cells per cm^2 in 384-well poly-D Lysine coated plates (Greiner) in Neurobasal Media (Life Technologies) supplemented with B27 (Life Technologies), Glutamax (Life Technologies) and antibiotics (penicillin, 50 units/ml and streptomycin 50 µg/ml, Life Technologies). Cultures were maintained at 37°C in 5% CO2 with weekly media change for 3 weeks prior to experimentation. These mixed cultures of hippocampal plus cortical neurons and glia were used for all of the in vitro experiments described.
Cultures were treated with compounds for 60 minutes prior to addition of 6 µM (maximum from trafficking dose-response curve) of synthetic Abeta 1–42 oligomers and incubated for 24 hrs. Cultures were fixed and immunofluorescently labeled and imaged as for the Abeta binding assay. The ThermoFisher/Cellomics Neuronal Profiling bioapplication was used to count synaptophysin-immunopositive puncta along MAP2-labeled neurites. The number of puncta per unit length of neurites was used to determine effects of treatments. To attain statistical power of 80% and a p value of less than 0.05 (determined using G*Power software), twenty replicate wells were treated per experiment plate and compared to control wells on the same plate and experiments were repeated four times.

A further series has as its target T1, sigma-2/PGRMC1 receptor (Homo sapiens, UniProt Q5BJF2).
T1 construct: endogenous in cells; host or cells: human Jurkat cells (membranes)
Nature of the series: Sigma-2 radioligand binding. Particulars: radioligand competition binding; read-out: Ki, binding affinity at the sigma-2/PGRMC1 receptor. The procedure:
Radioligand competition assays were performed in membranes from human Jurkat cells using 5 nM [^3H]1,3-di(2-tolyl) guanidine in the presence of 1 µM (+)-pentazocine with 10 µM haloperidol to define non-specific binding.

Series [6] has as its system hAPP Swe/Ldn transgenic mice. Nature of the series: Contextual fear conditioning in transgenic mice. As to conditions: 30 mg/kg/day p.o., 5.5 months, 9 month old males. The series is classed as in vivo.
From the text: as §1

Series [7] can be described thus: Brain concentration of compounds (LC/MS/MS). In kind it is in vivo, mice. Particulars: hAPP Swe/Ldn transgenic, mouse, 24 h after last dose, read-out: Compound Concentration in brain.
From the text: as §1

The next series relates to glia. In words: Abeta binding assay, glia cell bodies. Also noted: species or system rat.
Series [8] has as its system C57/BL6 mice injected with Abeta oligomers. In words: Contextual fear conditioning after intrahippocampal Abeta oligomer injection. The series is classed as in vivo. As to conditions: injected into dorsal hippocampi 24 hours prior to testing.
From the text: as §1

Series [9] concerns hippocampal/cortical cultures. Nature of the series: Internalization of Abeta oligomers (immunolabeling with/without detergent). In kind it is cell-based, rat. Particulars: for bound Abeta at the surface: 1 µM. The procedure: Supplementary file pone.0111898.s002.tif: Figure S2 Internalization of Abeta oligomers. After treatment with Abeta oligomers (1 µM) for 1 hr (A, B) or 2 hr (C, D), cultures were fixed and immunolabeled for Abeta either in the presence of 0.05% Triton X-100 to permeabilize cells to immunoglobulins and measure all Abeta present (A, C) or in the absence of this detergent (B, D) to detect only Abeta bound at the cell surface. […] (TIF) Click here for additional data file.

“And” between values parts separate entries of the source, which are not always exact repeats. Equal entries are not always repeated. Where two headings read alike, the source gives them in different places.

T1 sequence (Q5BJF2 whole entry): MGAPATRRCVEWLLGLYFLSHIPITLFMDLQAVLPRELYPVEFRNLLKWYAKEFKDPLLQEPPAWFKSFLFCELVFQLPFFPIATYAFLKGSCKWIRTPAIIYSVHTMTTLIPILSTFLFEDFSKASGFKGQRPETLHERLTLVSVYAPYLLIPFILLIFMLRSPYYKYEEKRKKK
Experimental for glia: Measurements of Abeta binding to glia were made with a separate algorithm (ThermoFisher/Cellomics Target Activation bioapplication) which identifies cells lacking MAP2 labeling. Glial cells were analyzed after separating them based on their nuclear morphology as determined by the characteristics of their DAPI labeling, as described in Fig. S1. […]
The morphology of MAP-2 negative glial nuclei labeled with DAPI was analyzed via automated image processing. […]

Regarding `C[C@H](CCc1ccc(Cl)cc1)NCc1ccc(C(F)(F)F)cc1` [CT01346], in series [1] (15 µM compound added 1 hour after oligomers 0.5 µM, within 1 hour), the “displacement of Abeta oligomers” value came to 93±13%. In [1] (15 µM compound one hour prior to synthetic Abeta oligomers 0.5 µM), the “prevention of binding of Abeta oligomers to neuronal cultures” value is recorded as 93%±4%. Also, the EC50 was 8.71 µM in series [2] (Rattus norvegicus, 1 h, compound added 1 hr after Abeta oligomers, log value, read-out: Treatment Log EC50 ± SE (converted)); 8.7 µM in series [2] (Rattus norvegicus, 1 h, compound added 1 hr after synthetic Abeta oligomers, read-out: Treatment EC50); 9.33 µM in [2] (Rattus norvegicus, compound added 1 hr prior to Abeta oligomers, log value, read-out: Prevention Log EC50 ± SE (converted)); 9.4 µM in series [2] (Rattus norvegicus, compound added 1 hr prior to synthetic Abeta oligomers, read-out: Prevention EC50). For the same compound, the Schild slope in series [2] (against synthetic oligomers) is 1. Further, the Measured efficacy result in series [3] (10 mg/kg/day oral gavage) is on record as “-”; in series [3] (30 mg/kg/day oral gavage), “+”. In addition, the Behavioral efficacy entry in series [3] (Table S1) is recorded as “Yes”. In addition, the “spatial memory retrieval performance, transgenic animals” value in series [4] (30 mg/kg/day oral, eleven month-old females) is on record as “significantly improves spatial memory retrieval performance”. Besides, the “behavior of treated nontransgenic animals” value in series [4] (30 mg/kg/day p.o.) is reported as “behaved similarly to vehicle-treated wild-type animals”. The “Affects Synapse density in the absence of Aβ” value in series [5] (Table S1) was “No”. Moreover, the Ki at sigma-2/PGRMC1 receptor came out at 0.05 µM. In addition, the “contextual fear memory performance” value in series [6] was “significantly improved fear memory performance”. The concentration at 24 h in series [7] (10 mg/kg/day once daily oral gavage) came out at 54 nM; in series [7] (30 mg/kg/day once daily oral gavage), 330 nM.

On to “synthetic oligomers (high concentration): synthetic human Abeta 1–42 oligomerized at 100 µM, 4°C, 24 hr; contains monomer [reference compound]”, for which the “bound puncta colocalizing with synaptophysin presynaptic terminals” value in series [1] (440 nM total Abeta, 60 minutes) is given as 37%±3%. Also, the Kd in series [1] (60 min treatment, read-out: Kd Site 1 (high affinity), neurons synaptic puncta) was 0.518 µM; with glia (non-saturable site, read-out: Kd Site 2, glia cell bodies with condensed/asymmetric nuclear morphology), above 1000 µM; in the series on glia (read-out: Kd Site 1 (high affinity), glia cell bodies with condensed/asymmetric nuclear morphology), 0.289 µM. Further, the “Treatment duration for maximum response” value in series [2] (Abeta preparation dosed alone) worked out at 24 h. The EC50 in series [2] (preparation dosed alone, listed as synthetic Abeta oligomers, read-out: EC50 of Abeta preparation) amounted to 0.462 ± 0.056 µM; in series [2] (preparation dosed alone, read-out: EC50 of Abeta preparation), 0.46 µM. The “effect of Abeta oligomers on contextual fear memory” value in [8] is “cause a deficit in contextual fear conditioning-dependent associative memory”. In addition, the “loss of synaptophysin-immunoreactive puncta” value is given as 18%±2 in series [5] (listed as Oligomers) and 18% in [5] (listed as synthetic Abeta oligomers). The “bound Abeta at the surface” value is on record as 96%±8% in [9] (1 hr exposure) and 73%±3% in series [9] (2 hrs exposure). Moreover, in series [9] (2 hr exposure, listed as Abeta oligomers), the “bound Abeta internalized” value is 27%±8% and 27±8%.

The record behind these values is article PMC4229098, “Alzheimer's Therapeutics Targeting Amyloid Beta 1–42 Oligomers I: Abeta 42 Oligomer Binding to Specific Neuronal Receptors Is Displaced by Drug Candidates That Improve Cognitive Deficits” (PLoS ONE, 2014).
